Experimental data: publication PMC3190963 (Journal of structural biology, 2011)

Target: human UPP1 (hUPP1) (Homo sapiens, UniProt Q16831)
Experiment: absorbance change at […] nm, uridine to uracil
Assay type: biochemical
Settings: uridine and inorganic phosphate; reference for hUPP2 activity

Sequence of human UPP1 (hUPP1) (Q16831 whole entry): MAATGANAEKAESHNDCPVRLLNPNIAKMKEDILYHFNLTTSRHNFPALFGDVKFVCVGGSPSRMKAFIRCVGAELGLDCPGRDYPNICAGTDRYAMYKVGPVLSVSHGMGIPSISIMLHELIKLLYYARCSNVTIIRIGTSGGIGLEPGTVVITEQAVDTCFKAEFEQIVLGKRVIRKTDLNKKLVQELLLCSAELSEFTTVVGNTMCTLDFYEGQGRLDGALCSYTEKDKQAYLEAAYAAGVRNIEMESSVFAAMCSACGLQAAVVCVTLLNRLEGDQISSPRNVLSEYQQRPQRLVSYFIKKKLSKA

Structure (SMILES): O=c1ccn([C@@H]2O[C@H](CO)[C@@H](O)[C@H]2O)c(=O)[nH]1 [uridine]
- absorbance change at 280 nm, uridine to uracil: in vitro activity of recombinant hUPP2 and hUPP1 was compared
